Laboratory results from article PMC10499581 (Journal of Ginseng Research, 2023).

Experiments:
PURA = molecular target: T1, PURA (Rattus norvegicus, UniProt A0A8I5YBE8); assay: biolayer interferometry, single concentration; type: binding; conditions: 30 °C, His-tagged PURA immobilized
T1 sequence (A0A8I5YBE8 1-321): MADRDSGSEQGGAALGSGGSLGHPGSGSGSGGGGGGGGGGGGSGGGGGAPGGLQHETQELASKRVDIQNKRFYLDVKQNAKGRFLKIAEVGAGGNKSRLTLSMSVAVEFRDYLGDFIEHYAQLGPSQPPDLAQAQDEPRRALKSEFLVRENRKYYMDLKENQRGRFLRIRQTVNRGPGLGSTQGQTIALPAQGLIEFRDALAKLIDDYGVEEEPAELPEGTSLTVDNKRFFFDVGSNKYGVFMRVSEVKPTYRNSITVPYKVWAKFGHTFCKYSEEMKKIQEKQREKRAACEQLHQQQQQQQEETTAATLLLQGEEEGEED

[1] = molecular target: T2, Pur-alpha (PURA), wild type, recombinant His-tagged (rat, UniProt A0A8I5YBE8 1-321); assay: BLI
T2 sequence (looked up): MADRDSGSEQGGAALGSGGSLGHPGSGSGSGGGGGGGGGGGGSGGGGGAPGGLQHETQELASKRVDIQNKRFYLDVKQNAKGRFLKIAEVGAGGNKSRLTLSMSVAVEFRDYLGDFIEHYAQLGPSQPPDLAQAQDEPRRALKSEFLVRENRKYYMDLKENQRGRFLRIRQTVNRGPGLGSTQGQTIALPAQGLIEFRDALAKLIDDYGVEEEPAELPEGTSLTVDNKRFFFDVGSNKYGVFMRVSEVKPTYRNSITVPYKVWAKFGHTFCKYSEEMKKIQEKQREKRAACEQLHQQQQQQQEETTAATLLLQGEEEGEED

Molecule | wavelength shift at 300 μM (PURA) | Kd [1] [µM]
CC(C)=CCC[C@](C)(O[C@@H]1O[C@H](CO)[C@@H](O)[C@H](O)[C@H]1O)[C@H]1CC[C@]2(C)[C@@H]1[C@H](O)C[C@@H]1[C@@]3(C)CC[C@H](O)C(C)(C)[C@@H]3CC[C@]12C [CK] | The direct binding strength of PURA to Rb1,Re, Rh1, Rg1, F1, Rd, Rh2,CK, PPD | –
CC(C)=CCC[C@](C)(O[C@@H]1O[C@H](CO)[C@@H](O)[C@H](O)[C@H]1O)[C@H]1CC[C@]2(C)[C@@H]1[C@H](O)C[C@@H]1[C@@]3(C)CC[C@H](O)C(C)(C)[C@@H]3[C@@H](O)C[C@]12C [F1] | The direct binding strength of PURA to Rb1,Re, Rh1, Rg1, F1, Rd, Rh2,CK, PPD | –
CC(C)=CCC[C@](C)(O)[C@H]1CC[C@]2(C)[C@@H]1[C@H](O)C[C@@H]1[C@@]3(C)CC[C@H](O)C(C)(C)[C@@H]3[C@@H](O[C@@H]3O[C@H](CO)[C@@H](O)[C@H](O)[C@H]3O)C[C@]12C [Rh1] | The direct binding strength of PURA to Rb1,Re, Rh1, Rg1, F1, Rd, Rh2,CK, PPD | –
CC(C)=CCC[C@](C)(O)[C@H]1CC[C@]2(C)[C@@H]1[C@H](O)C[C@@H]1[C@@]3(C)CC[C@H](O[C@@H]4O[C@H](CO)[C@@H](O)[C@H](O)[C@H]4O)C(C)(C)[C@@H]3CC[C@]12C [Rh2] | The direct binding strength of PURA to Rb1,Re, Rh1, Rg1, F1, Rd, Rh2,CK, PPD | –
Pur-beta (PURB) (natural protein, UniProt Q68A21 1-315, looked up) MADGDSGSERGGGGPGSFQPAPRGGGGPGGEQETQELASKRLDIQNKRFYLDVKQNAKGRFLKIAEVGAGGSKSRLTLSMAVAAEFRDSLGDFIEHYAQLGPSSPEQLAAGAEEGGGPRRALKSEFLVRENRKYYLDLKENQRGRFLRIRQTVNRGGGGFGGGPGPGGLQSGQTIALPAQGLIEFRDALAKLIDDYGGEDDELAGGPGGGAGGPGGGLYGELPEGTSITVDSKRFFFDVGCNKYGVFLRVSEVKPSYRNAITVPFKAWGKFGGAFCRYADEMKEIQERQRDKLYERRGGGSGGGDESEGEEVDED | – | 1.93
